Entries after “also recorded” stand apart in the source; their conditions may differ.

Data set [1] concerns MC3T3-E1 cells. Description: Confocal microscopy of cells cultured on different functional peptide (DSG) concentration. It counts as cell-based, mouse.
For data set [2], the system named is MC3T3-E1 cells. Description: Effect of RAD:DSG mixture ratio on cell proliferation (DNA contents, 7 days). It counts as cell-based, mouse. The following applies: RAD:DSG mixture ratio varied from 100:0 to 0:100, FIG. 8. As to the method: Effect of a mixture of self-assembling sequence peptide (e.g., 1% RAD16-1 peptide solution) and a functionalized peptide (SEQ ID NO. 7) with self-assembling sequence (RADA) (SEQ ID NO. 67) and functional motif (RGD), was evaluated (Tables 8-9) SEQ ID NO. 7 has an additional Glycine at the N-terminus (compared to SEQ ID NO. 4), which causes an increase in hydrophobicity of the hydrogel. Biologically SEQ ID NO. 4 and SEQ ID NO. 7 are considered to have similar effects.
Hydrogels were prepared so that the mixture ratio of RAD and DSG was varied from 100:0 to 0:100 (FIG. 8). Cells were prepared and seeded as described in Example 1. Cells were cultured on hydrogels for 7 days. Cell proliferation was evaluated using DNA contents in the hydrogel as same as Example 1.

Data set [3] can be described thus: Gel stiffness of hydrogel. The data set is classed as physicochemical. Conditions: compared to RAD.
The test system of data set [4] is HUVEC (human umbilical vein endothelial cells). Description: HUVEC cell attachment on hydrogels based on various self-assembling sequence. The following applies: HUVEC cultured for three days. As to the method:
Cell attachment and viability of the hydrogels were evaluated using HUVEC (human umbilical vein endothelial cells). The peptide solutions shown in Table 22 were loaded in the culture inserts (10 mm diameter, Millicell-CM, Millipore) and gels were formed using cell culture medium (EGM-2-MV, Camblex). HUVEC were plated at 8×10^4 cells on the inserts and cultured for three days.
This implies that functionalization of the self-assembling peptide is useful regardless of the basic repetitive sequence, while the properties of hydrogel can be controlled by altering basic repetitive sequence in amino acid and length.

In data set [5] the test system is chondrocytes. Conditions: encapsulated chondrocytes (Kisiday 2002); cited from earlier work.
In data set [6] the test system is HUVEC (human umbilical vein endothelial cells). Description: HUVEC cultured 2-dimensionally on hydrogels: cell attachment and morphology. The data set is classed as cell-based. Also noted: key to Capillary like morphology: weak: +; medium: ++; strong: +++; very strong: ++++. The following applies: HUVEC cultured on hydrogels. As to the method: The effect of functional modified peptide matrix to HUVEC (human umbilical vein endothelial cells) was evaluated by culturing cells 2-dimensionally on the gel.
The peptide solutions shown in Table 19 were loaded in the culture inserts (10 mm diameter, Millicell-CM, Millipore) and gels were formed using cell culture medium (EGM-2-MV, Camblex). Collagen-1 and Matrigel were used as control matrices. HUVEC (human umbilical vein endothelial cells) were plated at 8×10^4 cells on the inserts and cultured up to 7 Days.

Data set [7] concerns the target bFGF (Homo sapiens, UniProt P09038). Description: bFGF retention in peptide matrix (ELISA). Conditions: bFGF 175 ng/insert loaded after gelation; during PBS washing and culturing; FIG. 19. How it is done:
(§1) The effect of protein retention and delivery using the self-assembling peptide were studied (Table 11). bFGF was used as a model protein. The retention of bFGF in different peptide matrix in different charge condition was measured by ELISA after washing by PBS. After washing out unbound bFGF, the effect of protein retention to self-assembling peptide matrix were evaluated the using cell culturing of HUVEC (human umbilical vein endothelial cells).
The peptide solutions provided in Table 12 were loaded in the culture inserts (10 mm diameter, Millicell-CM, Millipore) and gels were formed using PBS. After gelation, bFGF solution in PBS was added inside and outside and plated for overnight. bFGF was loaded at 175 ng/insert. After loading bFGF, the PBS inside and outside the inserts were exchanged three times (2 hours, 9 hours and 12 hours) to remove unbound bFGF (Washing). After the washing, the PBS was exchanged to the cell culture medium (EGM-2-MV, Camblex) without attached growth factor (bFGF, VEGF and EGF) and placed more than a day (such that the fluid contained in the gel is exchanged from PBS to cell culture medium), then HUVEC (human umbilical vein endothelial cells) were plated at 7.5×10^4 cells on the inserts and cultured for three days.
Cell culturing using cell culture medium (EGM-2-MV) was used without attached growth factor on peptide matrix as negative control. Cell culturing using cell culture medium (EGM-2-MV) was used with attached growth factor on peptide matrix without loading growth factor as positive control. The bFGF concentration in washing buffer (PBS) and cell culture medium (EGM-2-MV) was measured using ELISA. The washing buffer and cell culture medium were exchanged at each measurement period (2 hours, 9 hours and 12 hours for washing, and at the cell seeding (D0), Day 1 (D 1), Day 2 (D2) and Day 3 (D3)). Growth factor retention rate was calculated by accumulating the amount of measured bFGF.
In general terms: An ELISA detects its analyte on a solid surface through an enzyme-linked reagent.

Data set [8] deals with HUVEC (human umbilical vein endothelial cells). Briefly: HUVEC culture on bFGF loaded peptide matrix. The data set is classed as cell-based. Conditions: Day 3; bFGF loaded matrix compared to negative and positive control; FIG. 21. As to the method:
as §1
The peptide solutions provided in Table 12 were loaded in the culture inserts (10 mm diameter, Millicell-CM, Millipore) and gels were formed using PBS. After gelation, bFGF solution in PBS was added inside and outside and plated for overnight. bFGF was loaded at 175 ng/insert. After loading bFGF, the PBS inside and outside the inserts were exchanged three times (2 hours, 9 hours and 12 hours) to remove unbound bFGF (Washing). […]
Cell culturing using cell culture medium (EGM-2-MV) was used without attached growth factor on peptide matrix as negative control. […] The bFGF concentration in washing buffer (PBS) and cell culture medium (EGM-2-MV) was measured using ELISA. […] Growth factor retention rate was calculated by accumulating the amount of measured bFGF. […]

Data set [9] in a line: pI and charge of the self-assembling peptide. The data set is classed as physicochemical. How it is done: (§2) A comparison of the pH dependent property of 1% Ac(RADA)4GGFHRRIKA CONH2 (SEQ ID NO. 6) solution (Code: FHR), self assembling peptide sequence was compared with the heparin-binding motif. FIG. 12 depicts the isoelectric plot and corresponding rheological data when 0.1 N NaOH solution is added to FHR solution to adjust pH. The net charge of the peptide molecule is kept ≧2 when pH<10. Until at point of pH 5.7, the solution keeps viscous state. This movement of pH point where the peptide solution become gel is controlled by the charge induced by the additional motif to the self-assembling peptide. The induced charge prevents the peptide to aggregate to form the gel. Thus, the cell and the peptide solution can be mixed near neutral pH. After complete mixing, the gel formation can be made by adding salt containing solution (e.g., a solution containing a gellation agent or an iso-osmotic solute).
FIG. 18 depicts the isoelectric plot and Rheological data of PFS 1% solution when 0.1 N NaOH solution is added. 1% Ac(RADA)4GGSKPPGTSS-CONH2 solution (Code: SKP, peptide sequence: SEQ ID NO. 7) is a hydrogel composed of peptides with a self-assembling sequence and positively-charged functional motif. Although the pI value of the peptide is 9.74 and it keeps positive charge at near pH 7 range, the gel is formed at the point of pH 4.5. This is because the charge of the molecule around pH 7 range is +1 and smaller than the charge of Ac(RADA)4GGFHRRIKA CONH2 (FHR) (bigger than 3). The charge of the whole peptide should be larger than 2 when the cell is mixed. This pH should be somewhere in 6-8 in order to minimize the damage to the cells. As this sequence is heparin-binding motif, the fiber can attach to the heparin molecule which is abundant at cell surface. This heparin-binding motif provides a specific anchor to the cell. As described in Example 1, this binding synergistically works with the other binding motif (e.g., RGD) to induce biological stimuli for cell proliferation and differentiation. This effect is not limited to the sequences previously describe, but the other motifs, including -XBBXBX- and -XBBBXXBX- sequences. […]

Data set [10] is described as follows: Isoelectric plot and rheological data when 0.1 N NaOH is added (pH of gel formation). It counts as physicochemical. Conditions: 1% solution, 0.1 N NaOH solution added.
Description: At the point of pH 3.6, the viscous solution become gel and has a higher G′ (stiffness), G″ (viscosity) value. When the pH is increased, the gel breaks into small pieces and it becomes a solution with precipitated peptides. At lower pH, the peptide forms fibers and the fibers make the solution viscous. When the pH becomes higher, and approaches the pI value, the peptide fibers lose their charge and aggregate to form gel. The same gel formation happens when the peptide charge is screened by salts in a salt-containing solution (e.g., a solution containing a gellation agent or an iso-osmotic solute). Once the gel is formed, the fiber structure is broken into pieces to form a precipitate particle.
as §2
FIG. 18 depicts the isoelectric plot and Rheological data of PFS 1% solution when 0.1 N NaOH solution is added. 1% Ac(RADA)4GGSKPPGTSS-CONH2 solution (Code: SKP, peptide sequence: SEQ ID NO. 7) is a hydrogel composed of peptides with a self-assembling sequence and positively-charged functional motif. Although the pI value of the peptide is 9.74 and it keeps positive charge at near pH 7 range, the gel is formed at the point of pH 4.5. […]

bFGF, sequence (P09038 143-288, species assumed): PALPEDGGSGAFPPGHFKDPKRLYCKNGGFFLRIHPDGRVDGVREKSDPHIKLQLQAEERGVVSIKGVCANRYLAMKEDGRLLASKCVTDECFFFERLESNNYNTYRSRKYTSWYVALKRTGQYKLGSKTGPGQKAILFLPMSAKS

On to “Ac(RADA)4GPRGDSGYRGDSG-CONH2 (Ac-RADARADARADARADAGPRGDSGYRGDSG-NH2) [DSG = 1% solution]”, for which the “cell location on the peptide matrix” value in data set [1] (DSG ratio 10%, FIG. 9A) is recorded as “stayed on the surface of the peptide matrix”. Moreover, the “cell migration into the matrix” value in data set [1] (DSG ratio 70%, FIG. 9B) is listed as “up to 300 um”. Besides, the “Cell proliferation (fluorescence intensity linear to the DNA contents)” value in data set [2] was “drop in fluorescence and drop”. In data set [3], the gel stiffness entry is reported as “less stiff gel; also recorded: lower stiffness gel”.

On to AcIEIKIEIKIGGPRGSYRGDS-CONH2 [EPRG], for which the Cell attachment entry in data set [4] was “++++ (++++: near confluence(>70%))”.

Regarding “AcNKLDLKLDLKLDL-CONH2 (Ac-KLDLKLDLKLDL-NH2; not fully specified) [KLD12]”, in data set [5], the “chondrocyte phenotype and ECM” value is “retained their morphology and developed a cartilage-like, mechanically functional ECM rich in proteoglycans and type-II collagen”.

“Ac(RADA)4GGPFSSTKT-CONH2 (Ac-RADARADARADARADAGGPFSSTKT-NH2) [Bone marrow homing; PFS = 1% peptide solution]”: in [6], the Capillary like morphology result is “+” and the Cell attachment result is given as “++ (++: 20-50%)”.

Consider AcIEIKIEIKIGGSKPPGTS-CONH2 [ESKP], for which, in data set [4], the Cell attachment entry was “+ (+: Weak(<20%))”.

Regarding “Ac(RADA)4GGDGRGDSVAYG-CONH2 (Ac-RADARADARADARADAGGDGRGDSVAYG-NH2) [SEQ ID NO. 5, Cell adhesion domain (Osteopontin); DGR-2P = 2% solution]”, the “bFGF (growth factor) retention rate” value in data set [7] is “high in the order of KFQ-2P, FHR-2P, RAD-2P then DGR-2P”. The “cell attachment and cell spread” value in data set [8] is on record as “superior”. Further, in data set [9], the charge entry is “negatively charged” and the pI is recorded as 4.78,.

On to “Ac(RADA)4GGSKPPGTSS-CONH2 (Ac-RADARADARADARADAGGSKPPGTSS-NH2) [Bone marrow homing; SKP = 1% solution]”, for which the “pH at which the viscous peptide solution becomes gel” value in data set [10] turned out to be 4.5. Also, the pI in data set [9] was 9.74. The “charge of the molecule around pH 7 range” value in data set [9] (around pH 7) was “+1”.

In the case of AcFKFQFKFQFKFQGPRGDSGYRGDS-CONH2 [KPRG], the Cell attachment result in data set [4] is “++++ (++++: near confluence(>70%))”.

Take AcIEIKIEIKIGGPFSSTKT-CONH2 [EPFS]: in data set [4], the Cell attachment entry is on record as “+ (+: Weak(<20%))”.

As to Ac-IEIKIEIKI-NH2 [reference compound], the Cell attachment entry in data set [4] is listed as “++ (++: 20-50%)”.
